PubChem BioAssay (NCI)
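Results reflect a 48-hour exposure of cells in 96-well plates to compound at five concentrations. GI50: concentration for 50% inhibition of growth. The concentration for full growth arrest is given as TGI.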

Assays:
Test in all cases: DTP human tumour cell line panel, 48 h
M19-MEL melanoma = system: M19-MEL melanoma
DLD-1 colon = system: DLD-1 colon
DMS 114 small cell lung = system: DMS 114 small cell lung
RXF-631 renal = system: RXF-631 renal
T-47D breast = system: T-47D breast
MDA-MB-231 breast = system: MDA-MB-231 breast
BT-549 breast = system: BT-549 breast
HS 578T breast = system: HS 578T breast
NCI/ADR-RES ovarian = system: NCI/ADR-RES ovarian
PC-3 prostate = system: PC-3 prostate

**Q.** For `CC1(C)CCc2cc3c(cc2O1)OC(C)(C)CC3=O`, which TGI (M19-MEL melanoma) is on record?
**A.** The TGI was > 100 µM.

**Q.** And the TGI (DLD-1 colon)?
**A.** The TGI was > 100 µM.

**Q.** And the TGI (DMS 114 small cell lung)?
**A.** Its TGI is > 100 µM.

**Q.** Which results are given for `CN(C)C=O.CN(C)C=O.CN1C(C(=O)Nc2ccccn2)=C([O-])c2ccccc2S1(=O)=O.CN1C(C(=O)Nc2ccccn2)=C([O-])c2ccccc2S1(=O)=O.[Cu+2]`?
**A.** GI50 (M19-MEL melanoma): 31 µM; TGI (M19-MEL melanoma): > 100 µM; GI50 (DMS 114 small cell lung): 32.2 µM; TGI (DMS 114 small cell lung): > 100 µM; GI50 (RXF-631 renal): 87.4 µM; TGI (RXF-631 renal): > 100 µM

**Q.** How did the TGI (T-47D breast) turn out when `CCCCCCCCCCCCCCC(C(=O)[O-])[n+]1ccccc1` (stereo not given) was run?
**A.** The TGI was > 100 µM.

**Q.** And the TGI (MDA-MB-231 breast)?
**A.** The TGI was > 100 µM.

**Q.** What about the TGI (BT-549 breast) of the same compound?
**A.** The TGI was > 100 µM.

**Q.** And the TGI (HS 578T breast)?
**A.** Its TGI is > 100 µM.

**Q.** And the TGI (NCI/ADR-RES ovarian)?
**A.** Its TGI is > 100 µM.

**Q.** And the TGI (PC-3 prostate)?
**A.** Its TGI is 77.6 µM.

**Q.** What does the source list for `COc1cc2c(cc1OCCCOc1cc3c(cc1OC)C(=O)N1CC(F)(F)C[C@H]1C=N3)N=C[C@@H]1CC(F)(F)CN1C2=O`?
**A.** GI50 (T-47D breast): 344 nM; TGI (T-47D breast): 5.12 µM; GI50 (MDA-MB-231 breast): 1310 nM; TGI (MDA-MB-231 breast): 6.77 µM; GI50 (BT-549 breast): 727 nM; TGI (BT-549 breast): 3.12 µM; GI50 (HS 578T breast): 3.13 µM; TGI (HS 578T breast): 15.3 µM; GI50 (NCI/ADR-RES ovarian): 21.4 µM; TGI (NCI/ADR-RES ovarian): > 84 µM; GI50 (PC-3 prostate): 1280 nM; TGI (PC-3 prostate): 9.9 µM

**Q.** With `COC(=O)C12OCC34C(CC5C(C)C6=CC(=O)OC6=CC5(C)C3C(O)C1O)OC(=O)C(OC(C)=O)C24` (stereo not given) as the compound, how does the TGI (M19-MEL melanoma) read?
**A.** Its TGI is 40.9 µM.

**Q.** What about the TGI (DLD-1 colon) of the same compound?
**A.** Its TGI is 25.3 µM.

**Q.** What about the TGI (DMS 114 small cell lung) of the same compound?
**A.** Its TGI is 35.4 µM.

**Q.** And the TGI (RXF-631 renal)?
**A.** The TGI was 33.9 µM.

**Q.** How did the TGI (M19-MEL melanoma) turn out when `Cc1cccc(NC(N)=S)c1` was run?
**A.** Its TGI is > 100 µM.

**Q.** And the TGI (DLD-1 colon)?
**A.** The TGI was > 100 µM.

**Q.** And the TGI (DMS 114 small cell lung)?
**A.** The TGI was > 100 µM.

**Q.** What about the TGI (RXF-631 renal) of the same compound?
**A.** Its TGI is > 100 µM.

**Q.** `NC(CCCNc1ccc(O)cc1)C(=O)O` (stereo not given) was tested. Which TGI (M19-MEL melanoma) did it give?
**A.** The TGI was 32.7 µM.

**Q.** What about the TGI (DLD-1 colon) of the same compound?
**A.** The TGI was 42.6 µM.

**Q.** And the TGI (DMS 114 small cell lung)?
**A.** Its TGI is 54.1 µM.

**Q.** And the TGI (RXF-631 renal)?
**A.** Its TGI is > 100 µM.

**Q.** What does the source list for `NS(=O)(=O)c1ccc(C(=O)O)cc1`?
**A.** TGI (T-47D breast): > 100 µM; TGI (MDA-MB-231 breast): > 100 µM; TGI (BT-549 breast): > 100 µM; TGI (HS 578T breast): > 100 µM; TGI (NCI/ADR-RES ovarian): > 100 µM; TGI (PC-3 prostate): > 100 µM

**Q.** How did the TGI (T-47D breast) turn out when `COc1ccc2c(c1)C(=O)c1c-2n(CCCCl)c(=O)c2cc([N+](=O)[O-])ccc12` was run?
**A.** The TGI was > 100 µM.

**Q.** What about the TGI (MDA-MB-231 breast) of the same compound?
**A.** The TGI was > 46 µM.

**Q.** What about the GI50 (BT-549 breast) of the same compound?
**A.** The GI50 was 1560 nM.

**Q.** What about the TGI (BT-549 breast) of the same compound?
**A.** Its TGI is > 100 µM.

**Q.** And the GI50 (HS 578T breast)?
**A.** The GI50 was > 68.9 µM.

**Q.** What about the TGI (HS 578T breast) of the same compound?
**A.** Its TGI is > 100 µM.

**Q.** What about the GI50 (NCI/ADR-RES ovarian) of the same compound?
**A.** The GI50 was 0.0815 µM.

**Q.** What about the GI50 (PC-3 prostate) of the same compound?
**A.** The GI50 was 1680 nM.

**Q.** And the TGI (PC-3 prostate)?
**A.** Its TGI is > 100 µM.

**Q.** With `Nc1ccc([As](=O)(O)O)cc1` as the compound, how does the TGI (T-47D breast) read?
**A.** Its TGI is > 100 µM.

**Q.** What about the TGI (MDA-MB-231 breast) of the same compound?
**A.** The TGI was > 100 µM.

**Q.** What about the TGI (BT-549 breast) of the same compound?
**A.** Its TGI is > 100 µM.

**Q.** And the TGI (HS 578T breast)?
**A.** The TGI was > 100 µM.

**Q.** What about the TGI (NCI/ADR-RES ovarian) of the same compound?
**A.** The TGI was > 100 µM.

**Q.** What about the TGI (PC-3 prostate) of the same compound?
**A.** The TGI was > 100 µM.

**Q.** For `Cn1ncc2c(=O)[nH]c(-c3ccccc3)nc21`, which TGI (DLD-1 colon) is on record?
**A.** Its TGI is > 100 µM.

**Q.** What about the TGI (DMS 114 small cell lung) of the same compound?
**A.** The TGI was > 100 µM.

**Q.** And the TGI (RXF-631 renal)?
**A.** The TGI was > 100 µM.

**Q.** How did the TGI (M19-MEL melanoma) turn out when `CC(C)(c1ccccc1)c1ccc(Oc2ccc3c(c2)-c2nc-3nc3[nH]c(nc4nc(nc5[nH]c(n2)c2ccc(Oc6ccc(C(C)(C)c7ccccc7)cc6)cc52)-c2cc(Oc5ccc(C(C)(C)c6ccccc6)cc5)ccc2-4)c2ccc(Oc4ccc(C(C)(C)c5ccccc5)cc4)cc32)cc1` was run?
**A.** Its TGI is > 100 µM.

**Q.** What about the TGI (DLD-1 colon) of the same compound?
**A.** Its TGI is > 100 µM.

**Q.** What about the TGI (RXF-631 renal) of the same compound?
**A.** Its TGI is > 100 µM.

**Q.** With `O=C1CC(c2ccccc2)NCCCCN2CC(CN1)C(C(O)c1ccccc1)C2=O` (stereo not given) as the compound, how does the TGI (T-47D breast) read?
**A.** The TGI was > 100 µM.

**Q.** What about the TGI (MDA-MB-231 breast) of the same compound?
**A.** Its TGI is > 100 µM.

**Q.** What about the TGI (BT-549 breast) of the same compound?
**A.** The TGI was > 100 µM.

**Q.** What about the TGI (HS 578T breast) of the same compound?
**A.** The TGI was > 100 µM.

**Q.** What about the TGI (NCI/ADR-RES ovarian) of the same compound?
**A.** The TGI was > 100 µM.

**Q.** What about the TGI (PC-3 prostate) of the same compound?
**A.** Its TGI is > 100 µM.

**Q.** How did the TGI (DLD-1 colon) turn out when `O=C(O)\C=C/C=C/C=C/C=C/C(=O)O` was run?
**A.** Its TGI is > 100 µM.

**Q.** And the TGI (DMS 114 small cell lung)?
**A.** Its TGI is > 100 µM.

**Q.** Which TGI (T-47D breast) does the source give for `CC1(C)CCCC2(C)C3=C(CCC12)C(=O)OC3` (stereo not given) here?
**A.** The TGI was > 100 µM.

**Q.** What about the TGI (MDA-MB-231 breast) of the same compound?
**A.** The TGI was > 100 µM.

**Q.** And the TGI (BT-549 breast)?
**A.** Its TGI is > 100 µM.

**Q.** What about the TGI (HS 578T breast) of the same compound?
**A.** Its TGI is > 100 µM.

**Q.** And the TGI (NCI/ADR-RES ovarian)?
**A.** Its TGI is > 100 µM.

**Q.** What about the TGI (PC-3 prostate) of the same compound?
**A.** Its TGI is > 100 µM.
